From the supplement of paper PMC10307832 come the findings set out here.

Common to all, as to experiment: relative viability (nuclei count vs DMSO), 5 days (fraction); higher = more cells survive
Compound in assay [1]: Cn1nnc2c(C(N)=O)ncn2c1=O [Temozolomide] + C[C@@H](Oc1cc(-c2cnn(C3CCNCC3)c2)cnc1N)c1c(Cl)ccc(F)c1Cl [Crizotinib] (partner 1 µM)
In short, it runs like this: (§1)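 Medians of duplicate plates are given as relative viability. That measure is the nuclei count in treated wells divided by the count in vehicle wells. Counts were taken on 4× images of lung cancer cell lines in 1536-well plates, 5 days after pin-tool dosing the day after seeding with one drug alone or a fixed anchor-drug dose plus five library-drug doses (not always all listed) in √10 steps.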

Compound in the assay “Temozolomide + Lapatinib”: Cn1nnc2c(C(N)=O)ncn2c1=O [Temozolomide] + CS(=O)(=O)CCNCc1ccc(-c2ccc3ncnc(Nc4ccc(OCc5cccc(F)c5)c(Cl)c4)c3c2)o1 [Lapatinib] (partner 2 µM)
In a few lines:
as §1

Compound in the assay “Temozolomide + Foretinib”: Cn1nnc2c(C(N)=O)ncn2c1=O [Temozolomide] + COc1cc2c(Oc3ccc(NC(=O)C4(C(=O)Nc5ccc(F)cc5)CC4)cc3F)ccnc2cc1OCCCN1CCOCC1 [Foretinib] (partner 0.25 µM)
In a few lines:
as §1

Compound in assay [2]: Cn1nnc2c(C(N)=O)ncn2c1=O [Temozolomide] + CC1(C)CCC(c2ccc(Cl)cc2)=C(CN2CCN(c3ccc(C(=O)NS(=O)(=O)c4ccc(N[C@H](CCN5CCOCC5)CSc5ccccc5)c(S(=O)(=O)C(F)(F)F)c4)cc3)CC2)C1 [Navitoclax] (partner 0.5 µM)
In a few lines:
as §1

Turning to NCI-H1703, the relative viability in assay [1] (first compound 0.2 µM) was found to be 0.746; in assay [1] (first compound 0.6325 µM) it was 0.648; in assay [1] (first compound 2 µM), 0.876; in assay [1] (first compound 6.325 µM), 0.8; in assay [1] (first compound 20 µM) it was 0.846; with Temozolomide + Lapatinib (first compound 0.2 µM) it was 1.39. Further, the relative viability with Temozolomide + Lapatinib (first compound 0.6325 µM) turned out to be 1.08; with Temozolomide + Lapatinib (first compound 2 µM), 1.59; with Temozolomide + Lapatinib (first compound 6.325 µM), 0.972; with Temozolomide + Lapatinib (first compound 20 µM), 1.21; with Temozolomide + Foretinib (first compound 0.2 µM) it was 0.297; in the assay with Temozolomide + Foretinib (first compound 0.6325 µM), 0.35. For the same cell line, the relative viability with Temozolomide + Foretinib (first compound 2 µM) was 0.401; in the assay with Temozolomide + Foretinib (first compound 6.325 µM), 0.281; in the assay with Temozolomide + Foretinib (first compound 20 µM), 0.374; in assay [2] (first compound 0.2 µM), 1.21; in assay [2] (first compound 0.6325 µM), 1.2; in assay [2] (first compound 2 µM), 1.28. Besides, the relative viability in assay [2] (first compound 6.325 µM) was 0.947; in assay [2] (first compound 20 µM), 1.37.
